In US6514981B1, “Methods of modulating tyrosine protein kinase function with indolinone compounds” (Sugen, Inc., priority 1998, dated 2003):

Key:
Format in all cases: cell-based
IGF-1 receptor = target: T1, IGF-1 receptor (Homo sapiens, UniProt P08069); assay: IGF-1 receptor phosphorylation assay in cells (ELISA); conditions: 3T3-L1/IGF-1R cells, IGF-1 stimulation
T1 construct: expressed in transfected cells; host or cells: 3T3-L1/IGF-1R (also written NIH3T3/IGF-1R)
Protocol: The following protocol was used to measure phosphotyrosine level on IGF-1 receptor, which indicates IGF-1 receptor tyrosine kinase activity.
a. The cell line used in this assay is 3T3-L1/IGF-1R, a cell line genetically engineered to overexpresses IGF-1 receptor.
2. Resuspend the cells in fresh DMEM+10% FBS+2mM L-Glutamine, and transfer to 96-well tissue culture plate (Corning, 250806-96) at 20,000 cells/well (100 μL/well). Incubate for 1 day then replace medium to serum-free medium (90/μL) and incubate in 5% CO2 and 37° C. overnight.
1. Coat the ELISA plate (Corning 25805-96) with Anti-IGF-1R Antibody at 0.5 μg/well in 100 μL PBS at least 2 hours.
2. Dilute drug stock (in 100% DMSO) 1:10 with DMEM in 96-well poly-propylene plate, and transfer 10 μL/well of this solution to the cells to achieve final drug dilution 1:100, and final DMSO concentration of 1.0%. Incubate the cells in 5% C02 at 37° C. for 2 hours.
4. After drug incubation for two hours, transfer 10 μL/well of 200 nM IGF-1 Ligand m PBS to the cells (Final Conc.=20 nM), and incubate at 5% CO2 at 37° C. for 10 minutes.
5. Remove media and add 100 μL/well HNTG* and shake for 10 minutes. Look at cells under microscope to see if they are adequately lysed.
6. […]
The IC50 values measured in the IGF-1 receptor phosphorylation assay for the compound of formula VI are depicted in Table 4: […]

HUV-EC-C cells [1] = assay: HUV-EC-C assay (3H-thymidine), VEGF; conditions: Homo sapiens, 3H-thymidine incorporation, HUVEC
Protocol: (§1) The following protocol may also be used to measure a compound's activity against PDGF-R, FGF-R or Flk-1/KDR, all of which are naturally expressed by HUV-EC cells. 1. Wash and trypsinize HUV-EC-C cells (human umbilical vein endothelial cells, (American Type Culture Collection; catalogue no. 1730 CRL). Wash with Dulbecco's phosphate-buffered saline (D-PBS; obtained from Gibco BRL, catalogue no. 14190-029) 2 times at about 1 mL/10 CM^2 of tissue culture flask. Trypsinize with 0.05% trypsin-EDTA in non-enzymatic cell dissociation solution (Sigma Chemical Company; catalogue no. C-1544). The 0.05% trypsin was made by diluting 0.25% trypsin/1 mM EDTA (Gibco; catalogue no. 25200-049) in the cell dissociation solution. Trypsinize with about 1 mL/25-30 cm^2 of tissue culture flask for about 5 minutes at 37° C. After cells have detached from the flask, add an equal volume of assay medium and transfer to a 50 mL sterile centrifuge tube (Fisher Scientific; catalogue no. 05-539-6). 2. Wash the cells with about 35 mL assay medium in the 50 mL sterile centrifuge tube by adding the assay medium, centrifuge for 10 minutes at approximately 200×g aspirate the supernatant and resuspend with 35 mL D-PBS. Repeat the wash two more times with D-PBS, resuspend the cells in about 1 mL assay medium/15 cm^2 of tissue culture flask. […]

HUV-EC-C cells [2] = assay: HUV-EC-C assay (3H-thymidine), aFGF; conditions: Homo sapiens, 3H-thymidine incorporation, HUVEC
Protocol: as §1

T1 sequence (P08069 31-1367): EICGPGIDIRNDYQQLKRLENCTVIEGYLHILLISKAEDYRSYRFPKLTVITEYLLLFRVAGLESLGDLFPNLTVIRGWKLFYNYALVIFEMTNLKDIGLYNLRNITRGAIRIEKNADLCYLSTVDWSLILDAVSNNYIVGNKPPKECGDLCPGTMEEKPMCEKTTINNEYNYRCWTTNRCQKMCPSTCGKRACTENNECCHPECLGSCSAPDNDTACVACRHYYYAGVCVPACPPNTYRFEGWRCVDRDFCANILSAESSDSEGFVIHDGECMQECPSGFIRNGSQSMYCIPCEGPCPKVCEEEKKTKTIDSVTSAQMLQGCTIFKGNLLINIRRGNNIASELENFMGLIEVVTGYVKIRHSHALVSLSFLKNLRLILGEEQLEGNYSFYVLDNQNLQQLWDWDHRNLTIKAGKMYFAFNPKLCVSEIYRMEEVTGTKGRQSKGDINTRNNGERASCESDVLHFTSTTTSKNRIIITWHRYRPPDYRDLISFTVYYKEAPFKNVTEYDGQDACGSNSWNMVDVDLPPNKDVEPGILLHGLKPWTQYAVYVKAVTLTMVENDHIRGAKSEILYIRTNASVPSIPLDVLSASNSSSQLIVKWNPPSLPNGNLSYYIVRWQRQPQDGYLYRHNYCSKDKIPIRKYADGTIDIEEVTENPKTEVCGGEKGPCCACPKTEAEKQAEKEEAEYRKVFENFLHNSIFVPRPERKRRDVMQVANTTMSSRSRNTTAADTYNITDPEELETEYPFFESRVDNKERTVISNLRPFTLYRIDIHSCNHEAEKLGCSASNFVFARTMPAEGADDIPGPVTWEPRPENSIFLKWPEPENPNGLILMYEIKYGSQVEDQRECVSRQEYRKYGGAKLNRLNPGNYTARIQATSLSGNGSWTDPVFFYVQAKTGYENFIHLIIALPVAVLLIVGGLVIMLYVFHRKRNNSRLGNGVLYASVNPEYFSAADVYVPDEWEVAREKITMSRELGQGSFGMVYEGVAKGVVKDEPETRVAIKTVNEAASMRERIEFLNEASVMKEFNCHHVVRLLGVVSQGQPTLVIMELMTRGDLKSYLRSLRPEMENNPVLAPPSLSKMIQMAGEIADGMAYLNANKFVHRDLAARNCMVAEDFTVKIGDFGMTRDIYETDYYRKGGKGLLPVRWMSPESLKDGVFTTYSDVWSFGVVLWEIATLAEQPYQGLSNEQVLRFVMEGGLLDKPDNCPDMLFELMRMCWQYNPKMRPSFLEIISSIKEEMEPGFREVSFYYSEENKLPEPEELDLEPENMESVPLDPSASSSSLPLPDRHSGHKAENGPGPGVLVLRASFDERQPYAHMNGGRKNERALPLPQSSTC

IC50 (IGF-1 receptor): 8520 nM
IC50 (HUV-EC-C cells [1]): 0.68 µM
IC50 (HUV-EC-C cells [2]): 0.63 µM
Compound: Cc1cc(/C=C2/C(=O)Nc3ccccc32)c(C)c2c1[nH]c1ccccc12 [VI]
